Data reported in PMC4450297, “Screening Active Compounds from Garcinia Species Native to China Reveals Novel Compounds Targeting the STAT/JAK Signaling Pathway” (BioMed Research International, 2015).
Like-named read-outs stand apart in the source and are kept apart here.

Key:
Assay type in all cases: cell-based, human
HT-1197 = experiment: Cell panel screen (CellTiter-Glo); conditions: Homo sapiens, read-out: Percent Inhibition
Outline: (§1)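 ATCC lines in supplier media with 10% FBS, seeded and cultured overnight at 37° C., then exposed to compound at 20 μM final for 72 h. CellTiter-Glo luminescence; % growth inhibition relative to DMSO-treated controls after subtracting cell-free background.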

T47D = experiment: Cell panel screen (CellTiter-Glo); conditions: Homo sapiens, read-out: Percent Inhibition
Outline: as §1

HEC-1-A = experiment: Cell panel screen (CellTiter-Glo); conditions: Homo sapiens, read-out: Percent Inhibition
Outline: as §1

NCI-H1770 = experiment: Cell panel screen (CellTiter-Glo); conditions: Homo sapiens, read-out: Percent Inhibition
Outline: as §1

HCC1395 = experiment: Cell panel screen (CellTiter-Glo); conditions: Homo sapiens, read-out: Percent Inhibition
Outline: as §1

Colo 205 = experiment: Cell panel screen (CellTiter-Glo); conditions: Homo sapiens, read-out: Percent Inhibition
Outline: as §1

NCI-H1694 = experiment: Cell panel screen (CellTiter-Glo); conditions: Homo sapiens, read-out: Percent Inhibition
Outline: as §1

HGC-27 = experiment: Cell panel screen (CellTiter-Glo); conditions: Homo sapiens, read-out: Percent Inhibition
Outline: as §1

ZR-75-30 = experiment: Cell panel screen (CellTiter-Glo); conditions: Homo sapiens, read-out: Percent Inhibition
Outline: as §1

BT-474 = experiment: Cell panel screen (CellTiter-Glo); conditions: Homo sapiens, read-out: Percent Inhibition
Outline: as §1

C3A = experiment: Cell panel screen (CellTiter-Glo); conditions: Homo sapiens, read-out: Percent Inhibition
Outline: as §1

Bel-7402 = experiment: Cell panel screen (CellTiter-Glo); conditions: Homo sapiens, read-out: Percent Inhibition
Outline: as §1

HCC1937 = experiment: Cell panel screen (CellTiter-Glo); conditions: Homo sapiens, read-out: Percent Inhibition
Outline: as §1

C8166 = experiment: Cell panel screen (CellTiter-Glo); conditions: Homo sapiens, read-out: Percent Inhibition
Outline: as §1

SW13 = experiment: Cell panel screen (CellTiter-Glo); conditions: Homo sapiens, read-out: Percent Inhibition
Outline: as §1

RL95 = experiment: Cell panel screen (CellTiter-Glo); conditions: Homo sapiens, read-out: Percent Inhibition
Outline: as §1

NCI-H1623 = experiment: Cell panel screen (CellTiter-Glo); conditions: Homo sapiens, read-out: Percent Inhibition
Outline: as §1

CW-2 = experiment: Cell panel screen (CellTiter-Glo); conditions: Homo sapiens, read-out: Percent Inhibition
Outline: as §1

HCC1569 = experiment: Cell panel screen (CellTiter-Glo); conditions: Homo sapiens, read-out: Percent Inhibition
Outline: as §1

NCI-H28 = experiment: Cell panel screen (CellTiter-Glo); conditions: Homo sapiens, read-out: Percent Inhibition
Outline: as §1

NCI-H2405 = experiment: Cell panel screen (CellTiter-Glo); conditions: Homo sapiens, read-out: Percent Inhibition
Outline: as §1

J82 = experiment: Cell panel screen (CellTiter-Glo); conditions: Homo sapiens, read-out: Percent Inhibition
Outline: as §1

T98G = experiment: Cell panel screen (CellTiter-Glo); conditions: Homo sapiens, read-out: Percent Inhibition
Outline: as §1

M059J = experiment: Cell panel screen (CellTiter-Glo); conditions: Homo sapiens, read-out: Percent Inhibition
Outline: as §1

A498 = experiment: Cell panel screen (CellTiter-Glo); conditions: Homo sapiens, read-out: Percent Inhibition
Outline: as §1

NCI-H1650 = experiment: Cell proliferation assay (CellTiter-Glo); conditions: NCI-H1650 cells, 20 μM to 0.009 μM in serial 3-fold dilutions
Description: All cells were obtained from the cell bank of the American Type Culture Collection (ATCC) and cultured in the supplier's recommended media supplemented with 10% FBS. The cell panel screen was measured using the CellTiter-Glo assay (Promega, Madison, WI) following a standard protocol. Briefly, cancer cells were seeded in 96-well plates and cultured overnight at 37°C with or without 5% CO2 in an incubator. Each compound was dissolved with limited DMSO and diluted to a certain concentration with culture medium and then added to the corresponding well of the cell plate. The final concentration of compound was 20 μM. The control cells (without treatment) received the same amount of DMSO and were incubated under the same conditions. After 72 h cultivation, 100 μL of the CellTiter-Glo reagent was added directly to each well for 10-minute incubation. The plate was then read on a FlexStation 3 microplate luminometer (Molecular Devices, USA) to monitor the luminescence signal generated by the luciferase-catalyzed reaction of luciferin and ATP. The percent of growth inhibition was calculated using the following formula: (untreated cells − treated cells)/(untreated cells − background without cells) ∗ 100.
For proliferation assays, the CellTiter-Glo assay (Promega, Madison, WI) was used to evaluate the proliferation of cancer cells treated with test compounds as described above. Each compound was dissolved in limited DMSO and diluted to various concentrations with culture medium and then added to the corresponding wells. A dose-response curve was plotted, and the IC50 was calculated using XLfit software.

CC(C)=CCC/C(C)=C/Cc1c(O)c(CC=C(C)C)c2c(c1O)C(=O)C1=C[C@@H]3C[C@H]4C(C)(C)O[C@@](CC=C(C)C)(C3=O)[C@@]14O2 [GB32]
inhibition at 20 µM (HT-1197; HT1197, 72 h): 99%
inhibition at 20 µM (T47D; T47D, 72 h): 99%
inhibition at 20 µM (HEC-1-A; HEC-1-A, 72 h): 99%
inhibition at 20 µM (NCI-H1770; NCI-H1770, 72 h): 99%
inhibition at 20 µM (HCC1395; HCC1395, 72 h): 99%
inhibition at 20 µM (Colo 205; COLO 205, 72 h): 99%
inhibition at 20 µM (NCI-H1694; NCI-H1694, 72 h): 100%
inhibition at 20 µM (HGC-27; HGC-27, 72 h): 99%
inhibition at 20 µM (ZR-75-30; ZR-75-30, 72 h): 99%
inhibition at 20 µM (BT-474; BT-474, 72 h): 99%
inhibition at 20 µM (C3A; C3A, 72 h): 99%
inhibition at 20 µM (Bel-7402; Bel-7402, 72 h): 99%
inhibition at 20 µM (HCC1937; HCC1937, 72 h): 99%
inhibition at 20 µM (C8166; C8166, 72 h): 99%
inhibition at 20 µM (SW13; SW13, 72 h): 99%
inhibition at 20 µM (RL95; 72 h): 99%
inhibition at 20 µM (NCI-H1623; NCI-H1623, 72 h): 99%
inhibition at 20 µM (CW-2; CW-2, 72 h): 99%
inhibition at 20 µM (HCC1569; HCC1569, 72 h): 99%
inhibition at 20 µM (NCI-H28; NCI-H28, 72 h): 99%
inhibition at 20 µM (NCI-H2405; NCI-H2405, 72 h): 99%
inhibition at 20 µM (J82; J82, 72 h): 99%
inhibition at 20 µM (T98G; T98G, 72 h): 99%
inhibition at 20 µM (M059J; M059J, 72 h): 99%
inhibition at 20 µM (A498; A498, 72 h): 98%
IC50 (NCI-H1650; Homo sapiens, 72 hr): 1090 ± 150 nM

CC(C)=CCC[C@@]1(C)C=Cc2c(O)c3c(c(CCC(C)(C)O)c2O1)O[C@]12C(=C[C@@H]4C[C@H]1C(C)(C)O[C@@]2(C/C=C(/C)C(=O)O)C4=O)C3=O [GB39, 33-hydroxyepigambogic acid]
inhibition at 20 µM (HT-1197; HT1197, HT-1197 (Urinary bladder), 20 micromolar, 72 hrs): 100%
inhibition at 20 µM (T47D; T47D (Breast), 20 micromolar, 72 hrs): 100%
inhibition at 20 µM (HEC-1-A; HEC-1-A (Uterus), 20 micromolar, 72 hrs): 100%
inhibition at 20 µM (NCI-H1770; NCI-H1770 (Lung), 20 micromolar, 72 hrs): 100%
inhibition at 20 µM (HCC1395; HCC1395 (Breast), 20 micromolar, 72 hrs): 100%
inhibition at 20 µM (Colo 205; Colo 205, 20 micromolar, 72 hrs): 100%
inhibition at 20 µM (NCI-H1694; NCI-H1694 (Lung), 20 micromolar, 72 hrs): 100%
inhibition at 20 µM (HGC-27; HGC-27 (Stomach), 20 micromolar, 72 hrs): 100%
inhibition at 20 µM (ZR-75-30; ZR-75-30 (Breast), 20 micromolar, 72 hrs): 100%
inhibition at 20 µM (BT-474; BT-474 (Breast), 20 micromolar, 72 hrs): 100%
inhibition at 20 µM (C3A; C3A (Liver), 20 micromolar, 72 hrs): 99%
inhibition at 20 µM (Bel-7402; Bel-7402 (Liver), 20 micromolar, 72 hrs): 100%
inhibition at 20 µM (HCC1937; HCC1937 (Breast), 20 micromolar, 72 hrs): 100%
inhibition at 20 µM (C8166; C8166 (Leukemia), 20 micromolar, 72 hrs): 100%
inhibition at 20 µM (SW13; SW13 (Adrenal gland), 20 micromolar, 72 hrs): 100%
inhibition at 20 µM (RL95; RL95 (Uterus), 20 micromolar, 72 hrs): 100%
inhibition at 20 µM (NCI-H1623; NCI-H1623 (Lung), 20 micromolar, 72 hrs): 100%
inhibition at 20 µM (CW-2; CW-2 (Colon), 20 micromolar, 72 hrs): 100%
inhibition at 20 µM (HCC1569; HCC1569 (Breast), 20 micromolar, 72 hrs): 100%
inhibition at 20 µM (NCI-H28; NCI-H28 (Lung), 20 micromolar, 72 hrs): 99%
inhibition at 20 µM (NCI-H2405; NCI-H2405 (Lung), 20 micromolar, 72 hrs): 100%
inhibition at 20 µM (J82; J82 (Urinary bladder), 20 micromolar, 72 hrs): 100%
inhibition at 20 µM (T98G; T98G (Brain), 20 micromolar, 72 hrs): 100%
inhibition at 20 µM (M059J; M059J (Brain), 20 micromolar, 72 hrs): 100%
inhibition at 20 µM (A498; A498 (listed under Lung), 20 micromolar, 72 hrs): 99%
IC50 (NCI-H1650; Homo sapiens, NCI-H1650, 72 h): < 1000 nM
IC50 (NCI-H1650; 72 hr): 950 ± 30 nM
